Experimental data published in patent US7727949B2, “Cleaning agent for thermostatic chambers” (Wako Pure Chemical Industries, Ltd., priority 2005, dated 2010).

Columns and labels:
Format in all cases: cell-based
[1] = system: Penicillium citrinum (NBRC6352); experiment: Study of antimicrobial activity (MIC, agar plate medium)
Procedure: (§1) In a sterilized petri dish having a diameter of 90 mm, an aqueous solution which was obtained by diluting each of agents with distilled water such that a concentration of the agent become each predetermined concentrations when the solution is prepared to a total volume of 20 mL, and then sterilized water was added into the petri dish such that a total volume of sterilized water and the agent aqueous solution become 2 mL. Further, 18 mL of nutrient agar medium, which was sterilized with high pressure steam and preserved at 50° C.±2° C., was added into the petri dish, and it was solidified to obtain an agar plate medium.
(§2) The individual test microorganism, which was preliminarily cultured in bouillon medium in advance until 1×10^8 microorganisms/mL, was diluted with sterilized physiological saline for 100 times (to 1×10^6 microorganisms/mL). Next, prepared solution of the test microorganism was smeared with a platinum loop on the surface of the agar plate medium prepared in (2), and the medium was cultured at 35° C.±2° C., for 24 hours.
(§3) After the cultivation, confirming the presence or not of growth of the microorganism on the surface of the medium was conducted, a minimum concentration of the agent, where growth of the microorganisms cannot be recognized, was determined as the minimum inhibitory concentration (MIC, μg/mL) of the agent.

[2] = system: Bacillus subtilis (NBRC13719); experiment: as above
Procedure: as §1, §2, §3

[3] = system: Aspergillus niger (NBRC6341); experiment: as above
Procedure: as §1, §2, §3

[4] = system: Staphylococcus aureus (NBRC12732); experiment: as above
Procedure: as §1, §2, §3

[5] = system: Trichoderma viride (NBRC31831); experiment: as above
Procedure: as §1, §2, §3

[6] = system: Chaetomium globosum (NBRC6347); experiment: as above
Procedure: as §1, §2, §3

[7] = system: Escherichia coli (NBRC3972); experiment: as above
Procedure: as §1, §2, §3

[8] = system: Pseudonas aeruginosa (NBRC12689); experiment: as above
Procedure: as §1, §2, §3

[9] = system: Cladosporium cladosporioides (NBRC6348); experiment: as above
Procedure: as §1, §2, §3

[10] = system: Escherichia coli (NBRC3972); experiment: Study of germicidal activity of agents in the presence of proteins; parameters: key: a case where growth of the microorganism on the surface of the medium was recognized is shown by +; a case where growth of the microorganism on the surface of the medium was not recognized is shown by −; settings: agent 50 μg/mL
Procedure: Didecyldimethylammonium adipate (DDAA), N-bis(3-aminopropyl)dodecylamine (TAA) and benzalkonium chloride were respectively prepared such that a concentration thereof is 1 w/w %.
GOT solution: GOT Substrate-Enzyme solution and GOT•L2α-KG solution which were components of L type Wako GOT•J2 kit (produced by Wako Pure Chemical Industries, Ltd.) were prepared with distilled water so as to become a 0.1 w/w % aqueous solution.
GPT solution: GOT Substrate-Enzyme solution and GOT•L2α-KG solution which were components of L type Wako GPT•J2 kit (produced by Wako Pure Chemical Industries, Ltd.) were prepared with distilled water so as to become a 0.1 w/w % aqueous solution.
Serum: Control Serum II Wako (produced by Wako Pure Chemical Industries, Ltd.) was prepared with distilled water so as to become a 0.1 w/w % aqueous solution.
i) The individual test microorganism, which was preliminarily cultured in bouillon medium in advance until 1×10^8 microorganisms/mL, were diluted with sterilized physiological saline for 100 times (to 1×10^6 microorganisms/mL) to obtain a solution of test microorganisms. ii) Into a 20 mL test tube made of glass which was preliminarily sterilized by dry-heat sterilization, the agent aqueous solution, the reagent solution and the solution of test microorganisms as prepared in the above described i) were added such that a final concentration of the agent become 50 μg/mL, a final concentration of the reagent become 100 μg/mL, and the number of test microorganisms become 1×10^5 microorganisms/mL, respectively, when a total volume thereof is prepared to be 10 mL. And then, the tube was sufficiently stirred. iii) After a lapse of predetermined times (5 min, 10 min, and 15 min), the solution as obtained in the above described ii) was smeared with a platinum loop on the surface of the nutrient agar plate medium preliminarily having been prepared, and the medium was cultured at 35° C.±2° C. for 24 hours. iv) After the cultivation, confirming the presence or not of the growth of the microorganisms on the surface of the medium was conducted. (3) Result
In Table 3, a case where growth of the microorganism on the surface of the medium was recognized is shown by +, and a case where growth of the microorganism on the surface of the medium was not recognized is shown by −, respectively.

Row | Molecule | Minimum Inhibitory Concentration P.c [1] [µg/mL] | Minimum Inhibitory Concentration B.s [2] [µg/mL] | Minimum Inhibitory Concentration A.n [3] | Minimum Inhibitory Concentration S.a [4] [µg/mL] | Minimum Inhibitory Concentration T.v [5] [µg/mL] | Minimum Inhibitory Concentration C.g [6] [µg/mL] | Minimum Inhibitory Concentration E.c [7] [µg/mL] | Minimum Inhibitory Concentration P.a [8] [µg/mL] | Minimum Inhibitory Concentration Cl.cl [9] [µg/mL] | growth of the microorganism E.c ([10]; GOT, 5 min) | growth of the microorganism E.c ([10]; GOT, 10 min) | growth of the microorganism E.c ([10]; GOT, 15 min) | growth of the microorganism E.c ([10]; GPT, 5 min) | growth of the microorganism E.c ([10]; GPT, 10 min) | growth of the microorganism E.c ([10]; GPT, 15 min) | growth of the microorganism E.c ([10]; Serum, 5 min) | growth of the microorganism E.c ([10]; Serum, 10 min) | growth of the microorganism E.c ([10]; Serum, 15 min)
1 | CCCCCCCCCCCCN(CCCN)CCCN [TAA, N-bis(3-aminopropyl)dodecylamine] | 200 | 3.125 | 200 µg/mL | 3.125 | 50 | 100 | 50 | 100 | 25 | + | + | + | + | + | + | + | + | +
2 | Didecyldimethylammonium adipate [DDAA] | 400 | <1.563 | 400 µg/mL | <1.563 | 200 | 200 | 100 | 400 | 100 | + | + | + | + | + | + | + | + | +
3 | benzalkonium chloride [BC, reference compound] | 800 | <1.563 | 1,600 μg/mL | 6.25 | 400 | 400 | 100 | 800 | 200 | + | + | + | + | + | + | + | + | +
